# Test results taken from ChEMBL document CHEMBL5653615 (J Biol Chem, 2013).
# Experiments:
# [1] = molecular target: T1, Aurora kinase A (Homo sapiens) (UniProt O14965); assay: Inhibition of human Aurora A at 18.6 nM by HotSpot assay relative to control
# T1 sequence (whole entry): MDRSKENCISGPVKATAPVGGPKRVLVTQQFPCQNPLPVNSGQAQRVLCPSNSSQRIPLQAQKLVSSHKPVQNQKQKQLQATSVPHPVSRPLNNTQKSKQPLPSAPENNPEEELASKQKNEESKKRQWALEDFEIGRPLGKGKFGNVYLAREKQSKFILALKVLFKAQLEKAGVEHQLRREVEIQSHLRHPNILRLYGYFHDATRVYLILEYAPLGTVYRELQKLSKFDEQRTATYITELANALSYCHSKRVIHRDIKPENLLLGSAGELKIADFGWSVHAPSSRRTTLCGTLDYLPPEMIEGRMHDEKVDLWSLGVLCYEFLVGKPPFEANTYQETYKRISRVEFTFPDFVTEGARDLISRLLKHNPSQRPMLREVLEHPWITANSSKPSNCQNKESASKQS
# [2] = molecular target: Mitogen-activated protein kinase 3 (Homo sapiens) (UniProt P27361); assay: Inhibition of human ERK1 at 18.6 nM by HotSpot assay relative to control
# Sequence of Mitogen-activated protein kinase 3 (Homo sapiens) (P27361 whole entry): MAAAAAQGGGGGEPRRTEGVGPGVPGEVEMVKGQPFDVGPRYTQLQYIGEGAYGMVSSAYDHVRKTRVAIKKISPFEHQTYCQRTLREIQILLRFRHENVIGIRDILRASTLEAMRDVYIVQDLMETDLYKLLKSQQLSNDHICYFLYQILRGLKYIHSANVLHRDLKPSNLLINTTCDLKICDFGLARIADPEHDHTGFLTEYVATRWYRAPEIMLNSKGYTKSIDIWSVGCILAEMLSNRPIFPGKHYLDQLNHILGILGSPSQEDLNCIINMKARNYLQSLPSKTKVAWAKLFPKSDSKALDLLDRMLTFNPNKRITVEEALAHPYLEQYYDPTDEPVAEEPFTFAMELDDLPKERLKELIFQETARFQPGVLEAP
# [3] = molecular target: G protein-coupled receptor kinase 6 (Homo sapiens) (UniProt P43250); assay: Inhibition of human GRK6 at 18.6 nM by HotSpot assay relative to control
# Sequence of G protein-coupled receptor kinase 6 (Homo sapiens) (P43250 whole entry, looked up): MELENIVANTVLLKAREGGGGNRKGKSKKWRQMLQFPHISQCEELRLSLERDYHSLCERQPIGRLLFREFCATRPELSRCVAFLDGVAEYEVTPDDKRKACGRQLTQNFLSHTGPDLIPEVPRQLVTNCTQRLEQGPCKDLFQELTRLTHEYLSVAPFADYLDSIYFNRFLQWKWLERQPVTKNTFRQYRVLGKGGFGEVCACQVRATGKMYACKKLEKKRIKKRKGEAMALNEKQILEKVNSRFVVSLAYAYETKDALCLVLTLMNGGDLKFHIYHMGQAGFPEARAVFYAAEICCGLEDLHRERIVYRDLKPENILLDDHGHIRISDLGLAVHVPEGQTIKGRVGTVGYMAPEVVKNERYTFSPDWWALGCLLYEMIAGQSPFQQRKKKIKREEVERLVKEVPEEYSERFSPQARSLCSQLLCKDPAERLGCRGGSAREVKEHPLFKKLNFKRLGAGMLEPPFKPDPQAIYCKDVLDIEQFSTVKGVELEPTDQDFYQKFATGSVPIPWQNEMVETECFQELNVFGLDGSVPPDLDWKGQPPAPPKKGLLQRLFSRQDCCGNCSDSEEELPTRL
# [4] = molecular target: Mast/stem cell growth factor receptor Kit (Homo sapiens) (UniProt P10721); assay: Inhibition of human c-Kit at 18.6 nM by HotSpot assay relative to control
# Sequence of Mast/stem cell growth factor receptor Kit (Homo sapiens) (P10721 whole entry): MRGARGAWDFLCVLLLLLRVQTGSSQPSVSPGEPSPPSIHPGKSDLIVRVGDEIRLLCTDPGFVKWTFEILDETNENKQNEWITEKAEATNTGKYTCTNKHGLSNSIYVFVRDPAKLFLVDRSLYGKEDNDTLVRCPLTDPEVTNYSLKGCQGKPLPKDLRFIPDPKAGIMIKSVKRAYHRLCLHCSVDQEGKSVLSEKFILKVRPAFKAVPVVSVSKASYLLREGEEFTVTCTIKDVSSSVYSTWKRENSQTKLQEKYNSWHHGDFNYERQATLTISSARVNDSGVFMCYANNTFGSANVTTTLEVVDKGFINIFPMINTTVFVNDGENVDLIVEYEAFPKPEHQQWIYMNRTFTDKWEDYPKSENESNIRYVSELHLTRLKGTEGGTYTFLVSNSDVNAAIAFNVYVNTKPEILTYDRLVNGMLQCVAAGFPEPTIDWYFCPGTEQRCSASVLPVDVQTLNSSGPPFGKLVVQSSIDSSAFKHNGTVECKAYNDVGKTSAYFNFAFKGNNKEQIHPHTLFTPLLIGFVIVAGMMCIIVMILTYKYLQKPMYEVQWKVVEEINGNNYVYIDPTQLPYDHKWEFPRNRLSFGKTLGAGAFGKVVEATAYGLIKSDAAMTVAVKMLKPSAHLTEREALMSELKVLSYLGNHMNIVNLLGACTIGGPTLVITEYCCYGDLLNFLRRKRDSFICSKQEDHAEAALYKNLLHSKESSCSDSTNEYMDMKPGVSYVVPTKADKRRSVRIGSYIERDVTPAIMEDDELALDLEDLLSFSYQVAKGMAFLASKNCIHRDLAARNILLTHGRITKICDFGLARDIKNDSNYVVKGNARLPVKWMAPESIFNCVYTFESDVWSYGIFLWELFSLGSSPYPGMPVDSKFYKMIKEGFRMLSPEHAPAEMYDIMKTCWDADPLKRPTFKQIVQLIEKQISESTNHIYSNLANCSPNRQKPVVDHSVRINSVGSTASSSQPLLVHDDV
# [5] = molecular target: T2, Mitogen-activated protein kinase 12 (Homo sapiens) (UniProt P53778); assay: Inhibition of human P38g at 18.6 nM by HotSpot assay relative to control
# T2 sequence (whole entry): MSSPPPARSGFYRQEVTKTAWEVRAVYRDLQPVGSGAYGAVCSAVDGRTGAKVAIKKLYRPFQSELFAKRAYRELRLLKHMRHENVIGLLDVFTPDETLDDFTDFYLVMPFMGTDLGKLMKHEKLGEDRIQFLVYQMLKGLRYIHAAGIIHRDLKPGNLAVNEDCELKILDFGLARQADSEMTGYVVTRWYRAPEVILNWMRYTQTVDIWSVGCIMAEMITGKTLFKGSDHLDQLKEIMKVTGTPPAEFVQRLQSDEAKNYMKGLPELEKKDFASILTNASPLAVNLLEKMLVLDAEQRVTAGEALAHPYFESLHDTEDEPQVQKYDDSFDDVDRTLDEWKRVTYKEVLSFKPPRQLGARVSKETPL
# [6] = molecular target: T3, Inhibitor of nuclear factor kappa-B kinase subunit alpha (Homo sapiens) (UniProt O15111); assay: Inhibition of human IKKa at 18.6 nM by HotSpot assay relative to control
# T3 sequence (whole entry): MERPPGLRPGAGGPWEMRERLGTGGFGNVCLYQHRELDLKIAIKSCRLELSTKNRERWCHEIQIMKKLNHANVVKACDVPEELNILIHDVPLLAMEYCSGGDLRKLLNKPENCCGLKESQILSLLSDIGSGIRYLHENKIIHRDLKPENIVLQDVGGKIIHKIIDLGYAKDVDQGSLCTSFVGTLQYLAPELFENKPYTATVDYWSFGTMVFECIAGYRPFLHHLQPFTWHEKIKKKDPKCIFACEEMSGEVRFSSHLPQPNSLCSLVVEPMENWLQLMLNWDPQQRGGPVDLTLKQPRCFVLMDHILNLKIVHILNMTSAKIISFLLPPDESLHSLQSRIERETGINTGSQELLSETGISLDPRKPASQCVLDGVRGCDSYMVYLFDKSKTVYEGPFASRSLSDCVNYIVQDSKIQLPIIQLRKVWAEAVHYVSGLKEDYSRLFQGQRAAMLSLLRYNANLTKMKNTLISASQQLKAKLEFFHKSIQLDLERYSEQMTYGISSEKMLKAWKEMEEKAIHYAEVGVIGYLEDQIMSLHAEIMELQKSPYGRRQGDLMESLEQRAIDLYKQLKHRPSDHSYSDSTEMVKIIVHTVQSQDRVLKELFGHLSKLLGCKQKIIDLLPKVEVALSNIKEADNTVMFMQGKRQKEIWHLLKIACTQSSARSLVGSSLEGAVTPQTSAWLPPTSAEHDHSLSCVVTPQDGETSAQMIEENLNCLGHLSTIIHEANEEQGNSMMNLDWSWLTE
# [7] = molecular target: T4, Protein kinase C zeta type (Homo sapiens) (UniProt Q05513); assay: Inhibition of human PKCzeta at 18.6 nM by HotSpot assay relative to control
# T4 sequence (whole entry): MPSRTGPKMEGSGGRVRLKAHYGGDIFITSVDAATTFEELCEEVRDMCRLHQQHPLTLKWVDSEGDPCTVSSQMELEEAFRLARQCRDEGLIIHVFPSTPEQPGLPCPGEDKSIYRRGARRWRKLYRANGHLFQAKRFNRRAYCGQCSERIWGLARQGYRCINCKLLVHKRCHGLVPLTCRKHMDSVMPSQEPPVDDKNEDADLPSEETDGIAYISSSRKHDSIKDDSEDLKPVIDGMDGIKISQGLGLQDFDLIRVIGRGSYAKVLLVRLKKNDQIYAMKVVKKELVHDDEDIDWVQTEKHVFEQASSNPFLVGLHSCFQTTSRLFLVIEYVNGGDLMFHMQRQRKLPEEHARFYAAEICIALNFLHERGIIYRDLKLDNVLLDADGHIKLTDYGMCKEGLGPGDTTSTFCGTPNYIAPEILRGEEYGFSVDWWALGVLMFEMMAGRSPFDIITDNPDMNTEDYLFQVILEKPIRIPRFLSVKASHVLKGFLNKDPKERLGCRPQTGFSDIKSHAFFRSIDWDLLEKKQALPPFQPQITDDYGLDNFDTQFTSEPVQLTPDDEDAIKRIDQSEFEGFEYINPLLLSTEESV
# [8] = molecular target: Casein kinase I isoform gamma-1 (Homo sapiens) (UniProt Q9HCP0); assay: Inhibition of human CK1g1 at 18.6 nM by HotSpot assay relative to control
# Sequence of Casein kinase I isoform gamma-1 (Homo sapiens) (Q9HCP0 whole entry, looked up, canonical isoform): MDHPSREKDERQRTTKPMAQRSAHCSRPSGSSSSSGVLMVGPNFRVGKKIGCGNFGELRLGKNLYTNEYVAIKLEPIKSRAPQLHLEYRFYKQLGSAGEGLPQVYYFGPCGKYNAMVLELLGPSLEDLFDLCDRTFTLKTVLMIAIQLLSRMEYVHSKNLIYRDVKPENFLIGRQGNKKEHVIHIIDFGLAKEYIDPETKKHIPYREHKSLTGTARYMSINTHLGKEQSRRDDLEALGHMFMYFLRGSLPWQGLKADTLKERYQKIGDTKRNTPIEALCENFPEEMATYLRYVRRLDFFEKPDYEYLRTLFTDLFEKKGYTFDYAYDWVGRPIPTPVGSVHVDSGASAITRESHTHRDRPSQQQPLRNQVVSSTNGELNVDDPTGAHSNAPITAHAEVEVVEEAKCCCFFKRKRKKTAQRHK
# [9] = molecular target: Serine/threonine-protein kinase pim-1 (Homo sapiens) (UniProt P11309); assay: Inhibition of human PIM1 at 1.82 nM by HotSpot assay relative to control
# Sequence of Serine/threonine-protein kinase pim-1 (Homo sapiens) (P11309 whole entry, looked up): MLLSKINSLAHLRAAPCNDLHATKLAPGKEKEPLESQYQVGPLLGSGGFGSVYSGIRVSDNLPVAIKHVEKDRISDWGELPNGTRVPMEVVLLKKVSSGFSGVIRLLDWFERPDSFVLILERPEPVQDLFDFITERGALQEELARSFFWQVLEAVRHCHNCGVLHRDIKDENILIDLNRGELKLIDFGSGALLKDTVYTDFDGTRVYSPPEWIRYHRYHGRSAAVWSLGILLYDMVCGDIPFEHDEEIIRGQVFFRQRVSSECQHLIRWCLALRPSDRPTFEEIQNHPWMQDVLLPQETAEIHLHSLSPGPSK
# [10] = molecular target: Dual specificity mitogen-activated protein kinase kinase 1 (Homo sapiens) (UniProt Q02750); assay: Inhibition of human MEK1 at 1.82 nM by HotSpot assay relative to control
# Sequence of Dual specificity mitogen-activated protein kinase kinase 1 (Homo sapiens) (Q02750 whole entry): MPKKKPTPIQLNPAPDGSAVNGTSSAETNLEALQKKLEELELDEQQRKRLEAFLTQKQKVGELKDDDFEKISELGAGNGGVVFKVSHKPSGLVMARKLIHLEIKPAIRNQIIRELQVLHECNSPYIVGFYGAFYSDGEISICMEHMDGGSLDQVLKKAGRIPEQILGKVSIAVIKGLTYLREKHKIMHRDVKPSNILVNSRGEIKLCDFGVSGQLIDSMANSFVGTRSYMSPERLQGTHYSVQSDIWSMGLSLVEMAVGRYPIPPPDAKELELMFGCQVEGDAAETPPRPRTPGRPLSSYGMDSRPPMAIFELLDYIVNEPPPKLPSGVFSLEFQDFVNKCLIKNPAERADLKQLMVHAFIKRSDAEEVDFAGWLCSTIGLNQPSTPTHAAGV
Structure (SMILES),inhibition [1] [%],inhibition [2] [%],inhibition [3] [%],inhibition [4] [%],inhibition [5] [%],inhibition [6] [%],inhibition [7] [%],inhibition [8] [%],inhibition [9] [%],inhibition [10] [%]
C[C@]1(O)C[C@@H](c2nc(-c3ccc4ccc(-c5ccccc5)nc4c3)c3c(N)nccn32)C1,-2.4,-9.66,3.48,2.65,-7.84,5.65,-2.9,-0.6,–,–
C[C@@]1(C(=O)Nc2ccc(F)nc2)CCCN1c1nc(Nc2cc(C3CC3)n[nH]2)c2cccn2n1,–,–,–,–,–,–,–,–,-5.96,-6.3
